From US20230312587A1, “PTERIDINONE COMPOUNDS AND USES THEREOF” (Vertex Pharmaceutical Incorporated, priority 2018, published 2023) come the findings set out here.

The experiment has as its system β-catenin-TCF-mediated reporter transcription activity in Colo 205 cells. The experiment in a line: Colo 205 reporter assay (TCF/LEF luciferase). The following applies: Colo 205 TCF/LEF luciferase reporter, five hours after addition of compound, read-out: TCF reporter Colo205 IC50. The experiment is classed as cell-based. A digest of the protocol:
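Luciferase signal from a TCF/LEF-driven reporter, stably integrated in Colo 205 colon cancer cells, was measured 5 h after compound addition.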

Like-named read-outs stand apart in the source and are kept apart here.

Take `CC[C@H]1C(=O)Nc2c(C)nc(NCc3cnn(Cc4ccc(Cl)nc4)c3)nc2N1C` [Compound 432, (7S)-2-(((1-((6-chloropyridin-3-yl)methyl)-1H-pyrazol-4-yl)methyl)amino)-7-ethyl-4,8-dimethyl-7,8-dihydropteridin-6(5H)-one]: the IC50 (Homo sapiens, COLO 205, 5 h) is < 0.3 µM. The same measure, in the same setting: the same measure for `Cc1nc(N[C@H]2C[C@@H](Cn3cnc(C(F)(F)F)c3)C2)nc2c1NC(=O)[C@H](C(C)C)N2C` [Compound 680, (S)-7-isopropyl-4,8-dimethyl-2-((cis-3-((4-(trifluoromethyl)-1H-imidazol-1-yl)methyl)cyclobutyl)amino)-7,8-dihydropteridin-6(5H)-one]: 0.3 to 1 µM; for `Cc1nc(NCc2cnn(Cc3ccnc(Cl)c3)c2)nc2c1NC(=O)[C@H](C)N2C` [Compound 185, (7S)-2-(((1-((2-chloropyridin-4-yl)methyl)-1H-pyrazol-4-yl)methyl)amino)-4,7,8-trimethyl-7,8-dihydropteridin-6(5H)-one]: 0.3 to 1 µM. The same measure, in the same setting: the same measure for `Cc1nc(NCc2cnn(Cc3ncc(F)cn3)c2)nc2c1NC(=O)[C@H](C)N2C` [Compound 162, (7S)-2-(((1-((5-fluoropyrimidin-2-yl)methyl)-1H-pyrazol-4-yl)methyl)amino)-4,7,8-trimethyl-7,8-dihydropteridin-6(5H)-one]: ≥ 5 µM; for `CC[C@H]1C(=O)Nc2c(C)nc(N[C@H]3C[C@H](Oc4cnc(C(F)(F)F)nc4)C3)nc2N1C` [Compound 645, (S)-7-ethyl-4,8-dimethyl-2-((trans-3-((2-(trifluoromethyl)pyrimidin-5-yl)oxy)cyclobutyl)amino)-7,8-dihydropteridin-6(5H)-one]: < 0.3 µM; for `Cc1nc(N[C@H]2C[C@@H](NC(=O)NC3CCC(F)(F)CC3)C2)nc2c1NC(=O)[C@H](C(C)C)N2C` [Compound 526, 1-(4,4-difluorocyclohexyl)-3-(cis-3-(((S)-7-isopropyl-4,8-dimethyl-6-oxo-5,6,7,8-tetrahydropteridin-2-yl)amino)cyclobutyl)urea]: ≥ 5 µM.

Consider `C[C@H]1C(=O)Nc2cnc(N[C@H]3C[C@H](Oc4ccc(F)cc4)C3)nc2N1C` [Compound 240, (7S)-2-((trans-3-(4-fluorophenoxy)cyclobutyl)amino)-7,8-dimethyl-7,8-dihydropteridin-6(5H)-one], for which the half-maximal inhibitory concentration (IC50) (Homo sapiens, COLO 205, 5 h) was 1 to 5 µM. On the same count and under the same terms, the same measure for `COc1ccc(O[C@H]2C[C@H](Nc3nc(C)c4c(n3)N(C)[C@@H](C)C(=O)N4C)C2)cc1OC` [Compound 353, (7S)-2-((trans-3-(3,4-dimethoxyphenoxy)cyclobutyl)amino)-4,5,7,8-tetramethyl-7,8-dihydropteridin-6(5H)-one]: ≥ 5 µM; for `Cc1nc(N[C@H]2C[C@@H](Oc3ccc(F)cc3)C2)nc2c1NC(=O)[C@H](C)N2C` [Compound 243, (7S)-2-((cis-3-(4-fluorophenoxy)cyclobutyl)amino)-4,7,8-trimethyl-7,8-dihydropteridin-6(5H)-one]: 1 to 5 µM. Consider “(7R)-5,7,8-triethyl-7-methyl-2-(((1-(3,4,5-trifluorobenzyl)-1H-pyrazol-4-yl)methyl)amino)-7,8-dihydropteridin-6(5H)-one [Compound 235]”, for which the IC50 is < 0.3 µM. `Cc1nc(N[C@H]2C[C@@H](Nc3ccc(C(F)(F)F)nc3)C2)nc2c1NC(=O)[C@H](C(C)C)N2C` [Compound 586, (S)-7-isopropyl-4,8-dimethyl-2-((cis-3-((6-(trifluoromethyl)pyridin-3-yl)amino)cyclobutyl)amino)-7,8-dihydropteridin-6(5H)-one]: the concentration for half-maximal inhibition (IC50) (Homo sapiens, COLO 205, 5 h) is < 0.3 µM. Still for that read-out and setting: the same measure for `O=C1Nc2cnc(NCc3cnn(CCc4ccc(F)cc4)c3)nc2N[C@H]1CCO` [Compound 13, (7S)-2-(((1-(4-fluorophenethyl)-1H-pyrazol-4-yl)methyl)amino)-7-(2-hydroxyethyl)-7,8-dihydropteridin-6(5H)-one]: ≥ 5 µM.
